Measurements: publication PMC8448162, “Single- and Multiple-Ascending-Dose Study of the Safety, Tolerability, and Pharmacokinetics of the Polymyxin Derivative SPR206” (Antimicrobial Agents and Chemotherapy, 2021)
Positions of bridges follow the written chain, without caps; N, C: chain ends. Non-standard residues stand in square brackets, D forms with d. Residues, ends and D or L forms follow the SMILES beside them. *: point of attachment. X1 = NC[C@@H](CC(=O)*)c1cccc(Cl)c1; Dab = NCC[C@H](N)C(=O)O; Dap = NC[C@H](N)C(=O)O

Experiment: clinical
Set-up: species or system human
Settings: in vivo; for AUC(0-inf): AUC0–inf; for clearance: CL; for Vd: Vz
Protocol: This was a single-center, phase 1, randomized, double-blind, placebo-controlled, first-in-human study to assess the safety, tolerability, and PK of SPR206 following SAD and MAD administrations (Fig. 7). In the SAD phase, subjects received a single i.v. dose of SPR206, and in the MAD phase, subjects received i.v. doses of SPR206 every 8 h (q8h) over a period of 7 to 14 days. SPR206 was administered as a 1 h i.v. infusion.
Maximum plasma concentration (Cmax), area under the concentration-time curve from time zero to last measurable time point (AUC0–t), area under the concentration-time curve from time zero to infinity (AUC0–inf), area under the concentration-time curve from time zero to tau (AUC0–tau), time to maximum concentration (Tmax), terminal elimination rate constant (kel), terminal half-life (t1/2), terminal clearance (CL), and volume of distribution (Vz) were determined. In addition, area under the concentration-time curve from 0 to 24 h after the start of infusion (AUC0–24) was determined for the SAD phase, and area under the concentration-time curve from time zero to 8 h from start of infusion (AUC0–8) on day 1 and 0 to 48 h (AUC0–48) following the last dose on day 14 as well as predose trough concentrations were determined for the MAD phase. Urine parameters included cumulative amount of drug excreted in successive urine intervals (Ae), renal clearance (CLR), fraction of cumulative fraction of dose recovered in urine as unchanged drug (Fe), and percentage fraction of cumulative fraction of dose recovered in urine as unchanged drug (Fe%). PK parameters were determined by noncompartmental analysis using Phoenix WinNonlin 8.1.
For the SAD phase, blood samples were obtained predose and at 30, 60, 75, 90, 105, 120, and 150 min and at 3, 5, 8, 12, and 24 h following the start of infusion. Urine was collected for PK assessment predose and over the intervals of 0 to 4 h, 4 to 8 h, 8 to 12 h, and 12 to 24 h after the start of infusion.
In the MAD phase, plasma samples for PK analysis were collected (i) on day 1—pre-dose and at 30, 60, 75, 90, 105, 120, and 150 min and at 3, 5, and 8 h following start of the first infusion; (ii) prior to the morning dose (within 10 min) on days 2, 3, 5, 7, 9, 11, and 13; and (iii) predose and 30, 75, 90, 105, 120, and 150 min and 3, 5, 8, and 12 h (day 14), 24, 36 (day 15), and 48 h (day 16) following start of the last infusion. Urine was collected for PK assessment on day 1 predose, over the intervals 0 to 4 h and 4 to 8 h after start of first infusion, and on days 14 and 15 over the intervals 0 to 4 h, 4 to 8 h, 8 to 12 h, and 12 to 24 h after start of day 14 infusion. Total 24-h urine for calculating CrCl was collected from the morning of day −1 to predose on day 1 and on days 15 and 16 over the interval from 24 to 48 h after the start of the day 14 infusion. Urine creatinine concentrations were measured using 24-h collections prior to the first dose on day 1 and over the 24 to 48 h following start of infusion of the last dose (day 14). Plasma and urine samples for SPR206 levels were analyzed using a validated liquid chromatography-tandem mass spectrometry (LC-MS/MS) method. The assay range for SPR206 was 50 to 5,000 ng/ml in plasma and 100 to 50,000 ng/ml in urine. In plasma, assay precision was 1.3 to 7.7%, accuracy was 1.2 to 9.5%, stability was 194 h at 4°C, and reproducibility was 98.4%. In urine, assay precision was 1.7 to 7.5%, accuracy was −4.8 to 7.3%, stability was 147 h at 4°C, and reproducibility was 97.8%.
Plasma and urine concentrations and PK parameters for SPR206 were summarized for each treatment using descriptive statistics. In the SAD/MAD study, geometric means were calculated for AUC and Cmax. Analyses using linear models were performed to assess dose proportionality (both single dose and multiple dose), time dependence, accumulation, and attainment of steady state after multiple doses. […]

CC(C)C[C@@H]1NC(=O)[C@@H](Cc2ccccc2)NC(=O)[C@H](CCN)NC(=O)[C@@H](NC(=O)[C@H](CN)NC(=O)[C@@H](NC(=O)C[C@H](CN)c2cccc(Cl)c2)[C@@H](C)O)CCNC(=O)[C@H]([C@@H](C)O)NC(=O)[C@H](CCN)NC(=O)[C@H](CCN)NC1=O [SPR206] (X1-T[Dap][Dab][Dab][dF]L[Dab][Dab]T; lactam 3-C (inferred))
Tmax (human): 1.1 to 1.3 h | accumulation ratio for AUC0–inf (human): 1.3-1.8 | accumulation ratio for Cmax (human): 1.1-1.3 | geometric CV for AUC0-inf (human): 6.9-17.4% | AUC0–8 (human, 25 mg): 4,391 ± 740 h · ng/ml | AUC0–inf (human, 25 mg): 5,197 ± 945 h · ng/ml | AUC%ext (human, 25 mg): 10.0 ± 4.5 ng·h/mL | CL (human, 25 mg): 4.9 ± 0.9 L/h | Cmax (human, 25 mg): 1,410 ± 241 ng/ml | Vz (human, 25 mg): 21.3 ± 3.6 L | half-life (human, 25 mg): 2.7 ± 0.2 h | AUC(0-t) (human, 25 mg, AUC0–8): 5880 ng·h/mL | AUC(0-t) (human, 25 mg, AUC0–48): 7680 ng·h/mL | AUC(0-inf) (human, 25 mg): 7690 ng·h/mL | clearance (human, 25 mg): 73.3 mL/min | Cmax (human, 25 mg, Cmax): 1610 ng/mL | half-life (human, 25 mg, Half-life): 4 ± 0.6 h | Vd (human, 25 mg): 18.9 ± 2.6 L | AUC0–8 (human, 50 mg): 7,955 ± 951 h · ng/ml | AUC0–inf (human, 50 mg): 9,243 ± 1,417 h · ng/ml | CL (human, 50 mg): 5.5 ± 0.8 L/h | Cmax (human, 50 mg): 2,525 ± 413 ng/ml | half-life (human, 50 mg): 2.7 ± 0.3 h | AUC(0-t) (human, 50 mg, AUC0–8): 10000 ng·h/mL | AUC(0-t) (human, 50 mg, AUC0–48): 12400 ng·h/mL | AUC(0-inf) (human, 50 mg): 12400 ng·h/mL | clearance (human, 50 mg): 83.3 mL/min | Cmax (human, 50 mg, Cmax): 2900 ng/mL | half-life (human, 50 mg, Half-life): 3.5 ± 0.9 h | Vd (human, 50 mg): 21.5 ± 1.8 L | AUC0–48 (human, 100 mg): 29,828 ± 5,112 h · ng/ml | AUC(0-t) (human, 100 mg, AUC0–8): 21300 ng·h/mL | AUC(0-t) (human, 100 mg, AUC0–48): 27500 ng·h/mL | AUC(0-inf) (human, 100 mg): 27700 ng·h/mL | clearance (human, 100 mg): 80 mL/min | Cmax (human, 100 mg, Cmax): 6340 ng/mL | Vd (human, 100 mg): 20.8 ± 2.9 L | AUC0–8 (human, 150 mg): 27,492 ± 3,452 h · ng/ml | AUC0–inf (human, 150 mg): 30,981 ± 4,189 h · ng/ml | CL (human, 150 mg): 4.9 ± 0.6 L/h | Cmax (human, 150 mg): 8,990 ± 1,056 ng/ml | Vz (human, 150 mg): 19.6 ± 3.2 L | higher plasma AUC0–8 and Cmax relative to the mean values for the cohort (human, 150 mg): approximately 23% | AUC(0-t) (human, 150 mg, AUC0–8): 41500 ng·h/mL | AUC(0-t) (human, 150 mg, AUC0–48): 55500 ng·h/mL | AUC(0-inf) (human, 150 mg): 56000 ng·h/mL | clearance (human, 150 mg): 61.7 mL/min | Cmax (human, 150 mg, Cmax): 11500 ng/mL | Vd (human, 150 mg): 17.1 ± 2.1 L | half-life (human, half-life): 2.4 to 4.1 h | Tmax (human, iv, 10 mg): 1 h | AUC(0-t) (human, iv, 10 mg, AUC0–8): 1560 ng·h/mL | AUC(0-inf) (human, iv, 10 mg): 1810 ng·h/mL | clearance (human, iv, 10 mg): 93.3 mL/min | Cmax (human, iv, 10 mg, Cmax): 495 ± 46.5 ng/mL | half-life (human, iv, 10 mg, Half-life): 2.6 ± 0.1 h | Vd (human, iv, 10 mg): 21 ± 3.4 L | Tmax (human, iv, 25 mg): 1 h | AUC(0-t) (human, iv, 25 mg, AUC0–8): 3810 ng·h/mL | AUC(0-inf) (human, iv, 25 mg): 4440 ng·h/mL | clearance (human, iv, 25 mg): 96.7 mL/min | Cmax (human, iv, 25 mg, Cmax): 1290 ng/mL | half-life (human, iv, 25 mg, Half-life): 2.8 ± 0.2 h | Vd (human, iv, 25 mg): 23.5 ± 4.3 L | Tmax (human, iv, 50 mg): 1 h | AUC(0-t) (human, iv, 50 mg, AUC0–8): 9380 ng·h/mL | AUC(0-inf) (human, iv, 50 mg): 10700 ng·h/mL | clearance (human, iv, 50 mg): 78.3 mL/min | Cmax (human, iv, 50 mg, Cmax): 3420 ng/mL | half-life (human, iv, 50 mg, Half-life): 2.6 ± 0.3 h | Vd (human, iv, 50 mg): 17.8 ± 2.9 L | Tmax (human, iv, 100 mg): 1.1 h | AUC(0-t) (human, iv, 100 mg, AUC0–8): 17300 ng·h/mL | AUC(0-inf) (human, iv, 100 mg): 20400 ng·h/mL | clearance (human, iv, 100 mg): 83.3 mL/min | Cmax (human, iv, 100 mg, Cmax): 5330 ng/mL | half-life (human, iv, 100 mg, Half-life): 3 ± 0.3 h | Vd (human, iv, 100 mg): 21.4 ± 2.8 L | Tmax (human, iv, 200 mg): 1.1 h | AUC(0-t) (human, iv, 200 mg, AUC0–8): 34500 ng·h/mL | AUC(0-inf) (human, iv, 200 mg): 40900 ng·h/mL | clearance (human, iv, 200 mg): 81.7 mL/min | Cmax (human, iv, 200 mg, Cmax): 11300 ng/mL | half-life (human, iv, 200 mg, Half-life): 3.4 ± 0.7 h | Vd (human, iv, 200 mg): 24 ± 3.1 L | Tmax (human, iv, 300 mg): 1.1 h | AUC(0-t) (human, iv, 300 mg, AUC0–8): 57700 ng·h/mL | AUC(0-inf) (human, iv, 300 mg): 71000 ng·h/mL | clearance (human, iv, 300 mg): 70 mL/min | Cmax (human, iv, 300 mg, Cmax): 18200 ng/mL | half-life (human, iv, 300 mg, Half-life): 4.1 ± 0.4 h | Vd (human, iv, 300 mg): 25.4 ± 3.3 L | Tmax (human, iv, 400 mg): 1.1 h | AUC(0-t) (human, iv, 400 mg, AUC0–8): 89300 ng·h/mL | clearance (human, iv, 400 mg): 61.7 mL/min | Cmax (human, iv, 400 mg, Cmax): 25400 ng/mL | half-life (human, iv, 400 mg, Half-life): 3.7 ± 0.5 h | Vd (human, iv, 400 mg): 19.4 ± 3.2 L | dose proportionality estimate (90% CI) for AUC0–inf: 1.11 (1.07, 1.14) | dose proportionality estimate (90% CI) for AUC0–last: 1.14 (1.11, 1.18) | dose proportionality estimate (90% CI) for Cmax: 1.05 (1.02, 1.08) | estimate of the exponent from the power model (90% CI) for AUC0–inf: 1.03 (0.94, 1.12) | estimate of the exponent from the power model (90% CI) for AUC0–last: 1.07 (0.98, 1.16) | estimate of the exponent from the power model (90% CI) for Cmax: 1.03 (0.96, 1.10) | intersubject variability in exposure: 10-25% | steady state achieved (based on Ctrough): ≤ 2 days
